Test results from patent US20200046641A1, “LIPOSOMES FOR THE TREATMENT OF OCULAR DISEASES” (TDC Technology Dedicated to Care srl, priority 2018, published 2020).

Test system: chorioallantoic membrane (CAM) of 10 days embryonated eggs
Assay: Ocular irritation by HET CAM test
Parameters: species or system hen
Settings: 0.3 ml applied on CAM; bleeding, vasoconstriction, clotting
Text: The in vitro test described in the present example has been carried out in order to evaluate if the ocular topical administration of the liposomes could cause irritation to the eye. To such purpose, the in vitro HET CAM test as described in […]-Recommended Test Method Protocol has been carried out: Hen's Egg Test-Chorioallantoic Membrane (HET-CAM) Test Method. The HET CAM test has been carried out by observing the irritation effects (bleeding, vasoconstriction and clotting) induced on the chorioallantoic membrane (CAM) of 10 days embryonated eggs by applying 0.3 ml of liposomes under test and calculating the ocular irritation index (“OII”) according to the formula described in Table 6. [table] The liposomes under examination in the present test are F1 and F2 liposomes. By means of the same method, the following controls have been also tested: SDS 1% (positive control with slow irritation), 0.1 N NaOH (positive control with fast irritation) and NaCl 0.9% (negative control). The embryonated eggs for this test have been obtained by the […]. farm, Tarragona, Spain. The eggs are kept at a temperature of 12±1° C. for at least 24 hours before placing them into the incubator at controlled temperature (37.8° C.) and humidity (50-60%) during the incubation days. The data have been analyzed as mean ±standard deviation at the moment when the injury occurred (n=3/group).

| SMILES | Irritating effects (HET CAM) |
| --- | --- |
| [Na+].[OH-] [0.1 N NaOH, NaOH] | irritating effects |
| CCCCCCCCCCCCOS(=O)(=O)[O-].[Na+] [SDS 1%, SDS] | irritating effects |
